Assay results published in US20130131043A1, “PYRAZOLE COMPOUNDS AS JAK INHIBITORS” (priority 2010, published 2013).

Key:
[1] = biological target: T1, JAK2 (Homo sapiens, UniProt O60674); assay: Kinobeads assay, JAK2 (competition binding in cell lysate, dot blot detection); details: mixed Molt4/Ramos lysate
T1 construct: endogenous in cells; host or cells: Molt4 (ATCC CRL-1582) and Ramos (ATCC CRL-1596) cell lysate; mixed Molt4/Ramos lysate 1:2
Method: (§1) The compounds of the present invention as described in the previous examples were tested in a Kinobeads™ assay as described for ZAP-70 (WO-A 2007/137867). Briefly, test compounds (at various concentrations) and the affinity matrix with the immobilized aminopyrido-pyrimidine ligand 24 were added to cell lysate aliquots and allowed to bind to the proteins in the lysate sample. After the incubation time the beads with captured proteins were separated from the lysate. Bound proteins were then eluted and the presence of JAK2 and JAK3 was detected and quantified using specific antibodies in a dot blot procedure and the Odyssey infrared detection system. Dose response curves for individual kinases were generated and IC50 values calculated. Kinobeads™ assays for ZAP-70 (WO-A 2007/137867) and for kinase selectivity profiling (WO-A 2006/134056) have been previously described.
(§2) 5×DP buffer: 250 mM Tris-HCl pH 7.4, 25% Glycerol, 7.5 mM MgCl2, 750 mM NaCl, 5 mM Na3VO4; filter the 5×DP buffer through a 0.22 μm filter and store in aliquots at −80° C. The 5×DP buffer is diluted with H2O to 1×DP buffer containing 1 mM DTT and 25 mM NaF.
(§3) Stock solutions of test compounds were prepared in DMSO. In a 96 well plate 30 μL solution of diluted test compounds at 5 mM in DMSO were prepared. Starting with this solution a 1:3 dilution series (9 steps) was prepared. For control experiments (no test compound) a buffer containing 2% DMSO was used.
(§4) Molt4 cells (ATCC catalogue number CRL-1582) and Ramos cells (ATCC catalogue number CRL-1596) were grown in 1 L Spinner flasks (Integra Biosciences, #182101) in suspension in RPMI 1640 medium (Invitrogen, #21875-034) supplemented with 10% Fetal Bovine Serum (Invitrogen) at a density between 0.15×10^6 and 1.2×10^6 cells/mL. Cells were harvested by centrifugation, washed once with 1×PBS buffer (Invitrogen, #14190-094) and cell pellets were frozen in liquid nitrogen and subsequently stored at −80° C. Cells were homogenized in a Potter S homogenizer in lysis buffer: 50 mM Tris-HCl, 0.8% NP40, 5% glycerol, 150 mM NaCl, 1.5 mM MgCl2, 25 mM NaF, 1 mM sodium vanadate, 1 mM DTT, pH 7.5. One complete EDTA-free tablet (protease inhibitor cocktail, Roche Diagnostics, 1873580) per 25 mL buffer was added. The material was dounced 10 times using a mechanized POTTER S, transferred to 50 mL falcon tubes, incubated for 30 minutes on ice and spun down for 10 minutes at 20,000 g at 4° C. (10,000 rpm in Sorvall SLA600, precooled). The supernatant was transferred to an ultracentrifuge (UZ)-polycarbonate tube (Beckmann, 355654) and spun for 1 hour at 100.000 g at 4° C. (33.500 rpm in Ti50.2, precooled). The supernatant was transferred again to a fresh 50 mL falcon tube, the protein concentration was determined by a Bradford assay (BioRad) and samples containing 50 mg of protein per aliquot were prepared. The samples were immediately used for experiments or frozen in liquid nitrogen and stored frozen at −80° C.
(§5) Cell lysate (approximately 50 mg protein per plate) was thawed in a water bath at room temperature and then stored on ice. To the thawed cell lysate 1×DP 0.8% NP40 buffer containing protease inhibitors (1 tablet for 25 mL buffer; EDTA-free protease inhibitor cocktail; Roche Diagnostics 1873580) was added in order to reach a final protein concentration of 10 mg/mL total protein. The diluted cell lysate was stored on ice. Mixed Molt4/Ramos lysate was prepared by combining one volume of Molt4 lysate and two volumes of Ramos lysate (ratio 1:2).
(§6) Plates were sealed and incubated for 3 hours in a cold room on a plate shaker (Heidolph tiramax 1000) at 750 rpm. Afterwards the plate was washed 3 times with 230 μL washing buffer (1×DP 0.4% NP40). The filter plate was placed on top of a collection plate (Greiner bio-one, PP-microplate 96 well V-shape, 65120) and the beads were then eluted with 20 μL of sample buffer (100 mM Tris, pH 7.4, 4% SDS, 0.00025% bromophenol blue, 20% glycerol, 50 mM DTT). […]

[2] = biological target: T2, JAK3 (Homo sapiens, UniProt P52333); assay: Kinobeads assay, JAK3 (competition binding in cell lysate, dot blot detection); details: mixed Molt4/Ramos lysate
T2 construct: endogenous in cells; host or cells: Molt4 (ATCC CRL-1582) and Ramos (ATCC CRL-1596) cell lysate; mixed Molt4/Ramos lysate 1:2
T2 sequence (P52333 1-1124): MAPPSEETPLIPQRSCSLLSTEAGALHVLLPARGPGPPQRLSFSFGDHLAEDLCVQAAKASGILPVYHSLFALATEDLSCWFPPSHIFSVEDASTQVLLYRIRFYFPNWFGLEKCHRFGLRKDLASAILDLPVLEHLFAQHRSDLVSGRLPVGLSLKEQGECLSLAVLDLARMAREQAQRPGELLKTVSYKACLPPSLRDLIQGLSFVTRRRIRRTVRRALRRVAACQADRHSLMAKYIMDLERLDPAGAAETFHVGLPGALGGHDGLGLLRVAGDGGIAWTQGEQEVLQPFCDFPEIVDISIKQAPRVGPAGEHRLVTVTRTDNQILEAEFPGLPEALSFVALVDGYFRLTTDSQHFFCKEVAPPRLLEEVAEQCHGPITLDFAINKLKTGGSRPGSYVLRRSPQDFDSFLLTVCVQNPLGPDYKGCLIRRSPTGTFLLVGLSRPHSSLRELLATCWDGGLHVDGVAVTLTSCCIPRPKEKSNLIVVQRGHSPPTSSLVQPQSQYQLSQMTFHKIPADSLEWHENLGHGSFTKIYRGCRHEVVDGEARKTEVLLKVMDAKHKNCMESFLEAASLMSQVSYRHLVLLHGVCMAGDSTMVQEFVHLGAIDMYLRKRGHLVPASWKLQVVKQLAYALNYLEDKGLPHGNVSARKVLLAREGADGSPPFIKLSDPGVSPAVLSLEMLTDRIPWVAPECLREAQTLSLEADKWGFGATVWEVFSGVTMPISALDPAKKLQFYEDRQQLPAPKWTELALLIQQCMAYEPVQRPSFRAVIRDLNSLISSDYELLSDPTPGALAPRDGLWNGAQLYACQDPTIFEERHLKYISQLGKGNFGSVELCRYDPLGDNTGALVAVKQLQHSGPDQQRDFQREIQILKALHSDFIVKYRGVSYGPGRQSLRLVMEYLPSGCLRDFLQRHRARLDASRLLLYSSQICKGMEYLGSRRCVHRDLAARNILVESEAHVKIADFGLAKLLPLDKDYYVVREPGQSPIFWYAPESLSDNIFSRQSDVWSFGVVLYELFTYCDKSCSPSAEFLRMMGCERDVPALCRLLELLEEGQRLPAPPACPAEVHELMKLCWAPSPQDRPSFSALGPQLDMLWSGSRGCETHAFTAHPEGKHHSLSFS
Method: as §1, §2, §3, §4, §5, §6

T1 sequence (O60674 whole entry): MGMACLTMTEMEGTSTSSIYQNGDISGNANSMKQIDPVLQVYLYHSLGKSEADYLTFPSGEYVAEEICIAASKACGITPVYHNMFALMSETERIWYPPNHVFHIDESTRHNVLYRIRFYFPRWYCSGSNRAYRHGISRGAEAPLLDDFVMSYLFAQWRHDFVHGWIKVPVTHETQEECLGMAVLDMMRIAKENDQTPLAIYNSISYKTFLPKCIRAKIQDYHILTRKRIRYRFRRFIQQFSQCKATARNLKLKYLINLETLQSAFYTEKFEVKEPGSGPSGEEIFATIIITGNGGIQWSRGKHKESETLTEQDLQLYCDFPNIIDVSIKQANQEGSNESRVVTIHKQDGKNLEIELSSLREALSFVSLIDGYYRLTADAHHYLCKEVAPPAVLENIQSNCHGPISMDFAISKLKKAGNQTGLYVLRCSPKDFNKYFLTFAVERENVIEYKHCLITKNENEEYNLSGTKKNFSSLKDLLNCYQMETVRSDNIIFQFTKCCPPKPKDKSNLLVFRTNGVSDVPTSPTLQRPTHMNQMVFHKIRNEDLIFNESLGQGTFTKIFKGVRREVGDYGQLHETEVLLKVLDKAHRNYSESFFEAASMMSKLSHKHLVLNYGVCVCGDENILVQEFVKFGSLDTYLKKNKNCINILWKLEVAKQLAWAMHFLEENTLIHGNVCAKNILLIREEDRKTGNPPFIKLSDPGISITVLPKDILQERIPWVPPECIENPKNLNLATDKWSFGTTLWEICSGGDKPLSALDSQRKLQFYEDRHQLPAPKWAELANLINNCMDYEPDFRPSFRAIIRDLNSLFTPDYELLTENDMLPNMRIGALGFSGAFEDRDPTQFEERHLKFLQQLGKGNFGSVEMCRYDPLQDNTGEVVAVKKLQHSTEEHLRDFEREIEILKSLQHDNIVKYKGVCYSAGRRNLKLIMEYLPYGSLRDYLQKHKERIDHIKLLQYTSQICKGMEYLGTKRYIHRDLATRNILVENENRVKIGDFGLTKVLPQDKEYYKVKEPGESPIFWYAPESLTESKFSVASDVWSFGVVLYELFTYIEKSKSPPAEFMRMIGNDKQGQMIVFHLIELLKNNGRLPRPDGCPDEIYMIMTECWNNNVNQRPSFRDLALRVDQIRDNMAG

IC50 [1] [µM] | IC50 [2] [nM] | SMILES
1 to 10 | < 100 | Cn1cc(Nc2ncc3cnn(CC4CCCN(C(=O)NC5CC5)C4)c3n2)cn1 (centres unmarked) [Example 52, N-cyclopropyl-3-((6-((1-methyl-1H-pyrazol-4-yl)amino)-1H-pyrazolo[3,4-d]pyrimidin-1-yl)methyl)piperidine-1-carboxamide]
1 to 10 | < 100 | CS(=O)(=O)N1CCCC(Cn2ncc3cnc(Nc4cnn(CCO)c4)nc32)C1 (centres unmarked) [Example 39, 2-(4-((1-((1-(methylsulfonyl)piperidin-3-yl)methyl)-1H-pyrazolo[3,4-d]pyrimidin-6-yl)amino)-1H-pyrazol-1-yl)ethanol]
1 to 10 | < 100 | CNC(=O)CN1CCCC(Cn2ncc3cnc(Nc4cnn(C)c4)nc32)C1 (centres unmarked) [Example 64, N-methyl-2-(3-((6-((1-methyl-1H-pyrazol-4-yl)amino)-1H-pyrazolo[3,4-d]pyrimidin-1-yl)methyl)piperidin-1-yl)acetamide]
1 to 10 | < 100 | Cn1cc(Nc2ncc3cnn(CC4CCCN(CCC#N)C4)c3n2)cn1 (centres unmarked) [Example 41, 3-(3-((6-((1-methyl-1H-pyrazol-4-yl)amino)-1H-pyrazolo[3,4-d]pyrimidin-1-yl)methyl)piperidin-1-yl)propanenitrile]
> 10 | 100 to 1000 | CC(C1CCCCC1)n1ncc2cnc(Nc3cnn(C)c3)nc21 (centres unmarked) [Example 17, 1-(1-Cyclohexylethyl)-N-(1-methyl-M-pyrazol-4-yl)-1H-pyrazolo[3,4-d]pyrimidin-6-amine]
1 to 10 | 100 to 1000 | Cn1cc(Nc2ncc3cnn(CCCNS(C)(=O)=O)c3n2)cn1 [Example 2, N-(3-(6-(1-methyl-1H-pyrazol-4-ylamino)-1H-pyrazolo[3,4-d]pyrimidin-1-yl)propyl)methanesulfonamide]
> 10 | < 100 | COCCN1CCCC(Cn2ncc3cnc(Nc4cnn(C)c4)nc32)C1 (centres unmarked) [Example 35, 1-((1-(2-methoxyethyl)piperidin-3-yl)methyl)-N-(1-methyl-1H-pyrazol-4-yl)-1H-pyrazolo[3,4-d]pyrimidin-6-amine]
1 to 10 | < 100 | C[C@H]1CCCC[C@@H]1n1ncc2cnc(Nc3cnn(C)c3)nc21 (racemic) [Example 7, Rac-trans-N-(1-methyl-1H-pyrazol-4-yl)-1-(2-methylcyclohexyl)-1H-pyrazolo[3,4-d]pyrimidin-6-amine]
1 to 10 | < 100 | CN1CCCC(Cn2ncc3cnc(Nc4cnn(C)c4)nc32)C1 (centres unmarked) [Example 6, N-(1-methyl-1H-pyrazol-4-yl)-1-((1-methylpiperidin-3-yl)methyl)-1H-pyrazolo[3,4-d]pyrimidin-6-amine]
> 10 | 100 to 1000 | Cn1cc(Nc2ncc3cnn(CC4CCN(S(C)(=O)=O)C4)c3n2)cn1 (centres unmarked) [Example 48, N-(1-methyl-1H-pyrazol-4-yl)-1-((1-(methylsulfonyl)pyrrolidin-3-yl)methyl)-1H-pyrazolo[3,4-d]pyrimidin-6-amine]
> 10 | 100 to 1000 | COC(=O)N1CCCC(Cn2ncc3cnc(Nc4cnn(C)c4)nc32)C1 (centres unmarked) [Example 38, methyl 3-((6-((1-methyl-1H-pyrazol-4-yl)amino)-1H-pyrazolo[3,4-d]pyrimidin-1-yl)methyl)piperidine-1-carboxylate]
> 10 | 100 to 1000 | CN(C)CC(=O)N1CCCC(Cn2ncc3cnc(Nc4cnn(C)c4)nc32)C1 (centres unmarked) [Example 29, 2-(dimethylamino)-1-(3-((6-((1-methyl-1H-pyrazol-4-yl)amino)-1H-pyrazolo[3,4-d]pyrimidin-1-yl)methyl)piperidin-1-yl)ethanone]
1 to 10 | < 100 | Cn1cc(Nc2ncc3cnn(C4CCCCCC4)c3n2)cn1 [Example 20, 1-Cycloheptyl-N-(1-methyl-1H-pyrazol-4-yl)-1H-pyrazolo[3,4-d]pyrimidin-6-amine]
1 to 10 | < 100 | C[C@H]1CCCC[C@@H]1n1ncc2cnc(Nc3cnn(CCO)c3)nc21 (racemic) [Example 50, Rac-trans-2-(4-((1-(2-methylcyclohexyl)-1H-pyrazolo[3,4-d]pyrimidin-6-yl)amino)-1H-pyrazol-1-yl)ethanol]
> 10 | 100 to 1000 | CC1CCCC1n1ncc2cnc(Nc3cnn(C)c3)nc21 (centres unmarked) [Example 14, N-(1-Methyl-1H-pyrazol-4-yl)-1-(2-methylcyclopentyl)-1H-pyrazolo[3,4-d]pyrimidin-6-amine]
> 10 | 100 to 1000 | Cn1cc(Nc2ncc3cnn(CC4CCN(S(=O)(=O)C5CC5)C4)c3n2)cn1 (centres unmarked) [Example 43, 1-((1-(cyclopropylsulfonyl)pyrrolidin-3-yl)methyl)-N-(1-methyl-1H-pyrazol-4-yl)-1H-pyrazolo[3,4-d]pyrimidin-6-amine]
> 10 | 100 to 1000 | Cn1cc(Nc2ncc3cnn(C4CCOCC4)c3n2)cn1 [Example 9, N-(1-methyl-1H-pyrazol-4-yl)-1-(tetrahydro-2H-pyran-4-yl)-1H-pyrazolo[3,4-d]pyrimidin-6-amine]
> 10 | 100 to 1000 | CCS(=O)(=O)N1CCC(Cn2ncc3cnc(Nc4cnn(C)c4)nc32)C1 (centres unmarked) [Example 42, 1-((1-(ethylsulfonyl)pyrrolidin-3-yl)methyl)-N-(1-methyl-1H-pyrazol-4-yl)-1H-pyrazolo[3,4-d]pyrimidin-6-amine]
1 to 10 | 100 to 1000 | Cn1cc(Nc2ncc3cnn(CC4CCCNC4)c3n2)cn1 (centres unmarked) [Example 5, N-(1-methyl-1H-pyrazol-4-yl)-1-(piperidin-3-ylmethyl)-1H-pyrazolo[3,4-d]pyrimidin-6-amine]
